Measured values reported in patent US11952328B2, “Selective ship inhibitors for treating disease” (THE RESEARCH FOUNDATION FOR THE STATE UNIVERSITY OF NEW YORK, priority 2018, dated 2024).

Key:
[1] = target: T1, SHIP1 (Homo sapiens, UniProt Q92835); test: Malachite Green phosphatase assay; assay type: biochemical; settings: at 1 nm and 500 μM
T1 sequence (Q92835 1-1189): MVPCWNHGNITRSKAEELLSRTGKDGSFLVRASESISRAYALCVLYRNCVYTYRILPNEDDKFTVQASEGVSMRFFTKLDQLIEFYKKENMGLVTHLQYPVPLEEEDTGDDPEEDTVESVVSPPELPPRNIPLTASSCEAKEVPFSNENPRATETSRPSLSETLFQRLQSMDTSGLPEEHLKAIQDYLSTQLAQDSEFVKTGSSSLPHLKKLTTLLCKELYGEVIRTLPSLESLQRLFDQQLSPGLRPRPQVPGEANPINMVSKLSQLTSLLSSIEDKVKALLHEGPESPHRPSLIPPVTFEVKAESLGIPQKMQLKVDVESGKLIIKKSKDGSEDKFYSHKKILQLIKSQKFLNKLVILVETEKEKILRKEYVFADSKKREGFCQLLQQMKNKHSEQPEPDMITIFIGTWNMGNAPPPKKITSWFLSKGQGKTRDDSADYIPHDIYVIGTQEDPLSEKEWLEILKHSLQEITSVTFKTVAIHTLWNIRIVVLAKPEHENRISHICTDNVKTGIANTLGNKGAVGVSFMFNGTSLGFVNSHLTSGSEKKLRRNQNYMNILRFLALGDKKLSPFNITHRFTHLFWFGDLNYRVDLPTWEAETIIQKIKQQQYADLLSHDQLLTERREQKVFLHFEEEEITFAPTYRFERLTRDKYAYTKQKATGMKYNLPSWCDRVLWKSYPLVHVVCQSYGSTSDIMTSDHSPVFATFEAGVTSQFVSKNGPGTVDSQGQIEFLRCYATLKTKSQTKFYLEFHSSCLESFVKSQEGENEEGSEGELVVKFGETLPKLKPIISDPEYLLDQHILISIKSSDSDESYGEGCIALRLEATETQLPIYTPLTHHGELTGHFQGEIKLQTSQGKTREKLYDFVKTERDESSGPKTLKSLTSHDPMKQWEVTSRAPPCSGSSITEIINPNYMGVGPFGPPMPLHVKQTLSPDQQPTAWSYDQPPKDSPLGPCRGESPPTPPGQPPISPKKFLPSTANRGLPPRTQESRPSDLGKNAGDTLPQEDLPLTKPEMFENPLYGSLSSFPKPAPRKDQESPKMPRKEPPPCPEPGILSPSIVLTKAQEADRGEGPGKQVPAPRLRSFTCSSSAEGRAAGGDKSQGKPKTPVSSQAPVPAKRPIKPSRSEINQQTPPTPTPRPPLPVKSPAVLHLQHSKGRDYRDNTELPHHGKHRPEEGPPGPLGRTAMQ
Description: FIGS. 2A-2C show the results of a SHIP1 malachite phosphatase assay. […] This predicts that the sulfonic acid is acting as a phosphate mimic, binding in active site where the 5′-phosphate of PIP3 binds.
K223 is an analog of EDANS, with the corresponding sulfonyl chloride of K223 being used as a donor for developing FRET-based nucleic acid probes and protease substrates. The docking pose of K223 with the model of the SHIP1 active site predicted that the sulfonic acid acts as a phosphate mimic, binding in the active site where the 5′-phosphate of PIP3 binds (FIG. 2B). The origin of the SHIP1 selectivity for K223 was not clear, however the nonpolar naphthalene core rests near K682 in the model of SHIP1, and this residue is a more polar arginine in SHIP2.

[2] = system: T and NK cells; test: Continuous dosing of patients with selective SHIP1 inhibitor; assay type: in vivo; settings: administration periods of 3, 4, 5, 6, 7 or more days
Protocol: An effective dose of selective SHIP1 inhibitor (e.g. K223) is administered by any appropriate means (e.g., orally, intravenously, intraperitoneally) to a patient for administration periods of 3, 4, 5, 6, 7 or more days.

inhibition of SHIP1 [1]: potent and selective inhibition of SHIP1
Structure (SMILES): NCCNc1cccc2cccc(S(=O)(=O)O)c12 [Compound K223, 8-((2-aminoethyl)amino)naphthalene-1-sulfonic acid]
responsiveness of activated T and NK cells [2]: hyporesponsiveness
